Experimental data taken from PMC8333425, “Discovery of a dual Ras and ARF6 inhibitor from a GPCR endocytosis screen” (Nature Communications, 2021).
“And” between values parts separate entries of the source, which are not always exact repeats. Identical values can stand only once.

Experiments:
[1] = tested on: β-arrestin2 recruitment to B2R; assay: BRET recruitment of β-arrestin2 to B2R; assay type: cell-based, human
Protocol: (§1) HEK293SL cells were seeded at a density of 7.5 × 10^5 cells per 100-mm dish and 24 h later, transiently transfected as such. For receptor internalization experiments, cells were transfected with 0.12 μg AT1R-RlucII, B2R-RlucII, or β2AR-RlucII and 0.48 μg of either rGFP-CAAX (to assess removal from the PM) or rGFP-FYVE (to assess accumulation in the endosomes). For β-arrestin recruitment assays, cells were transfected with 0.48 μg of receptor-YFP along with 0.12 μg of β-arrestin-RlucII. For β-arrestin/AP-2 binding experiments, cells were transfected with 1 μg Flag-AT1R, 1 μg β2-Adaptin-YFP, and 0.12 μg β-arrestin2-RlucII. For G protein activation, cells were transfected with 3 μg of sp-Flag-AT1R along with either 4.5 μg of the Gαq-polycistronic BRET sensor or 0.24 μg of the Gαi3-RlucII and 0.6 μg of GFP10-Gγ2 and Gβ1 sensors or 0.12 μg PKN-RBD-RlucII and 0.48 μg of rGFP-CAAX. For PKC activation, cells were transfected with 3 μg of sp-Flag-AT1R and 0.18 μg of the PKC sensor. For GTPase activation experiments, cells were transfected with 1 μg Flag-AT1R, 0.48 μg of rGFP-CAAX, and either 0.12 μg of GGA3-PBD-RlucII, PAK-CRIB-RlucII or Raf-RBD-RlucII. For biosensor validation experiments, cells were additionally transfected with 500 ng Flag-K-Ras-WT, Flag-K-Ras-G12V, Flag-K-Ras-SOS-CAAX, HA-ARF6-WT, HA-ARF6-T27N, Myc-Rac1-WT, Myc-Rac1-Q61L or Myc-Rac1-T17N. For PI3K/Akt activation experiments, cells were transfected with 0.48 μg of rGFP-CAAX and 0.12 μg of Akt (PH)-RlucII. After 18 h of transfection, the media was replaced and cells were divided for subsequent experiments. Cells were detached and seeded onto poly-L-ornithine-coated 96-well flat white bottom plates (BrandTech Scientific) at a density of 2.5 × 10^4 cells per well in media. The next day, cells were washed once with Tyrode’s buffer (140 mM NaCl, 2.7 mM KCl, 1 mM CaCl2, 12 mM NaHCO3, 5.6 mM D-glucose, 0.5 mM MgCl2, 0.37 mM NaH2PO4, 25 mM HEPES, pH 7.4) and left in Tyrode’s buffer. For kinetics of β-arrestin recruitment or β-arrestin binding to receptor and AP-2 experiments, cells were serum starved for 30 min, pretreated with 21 (50 µM) or Barbadin (100 µM) for 30 min, stimulated with 100 nM AngII or 1 µM BK and BRET signals were monitored at indicated times using a Victor X Light plate reader (PerkinElmer). Coelenterazine H (final concentration of 5 µM) was added 3–5 min prior to BRET measurements. Filter set was 460/80 nm and 535/30 nm for detecting the RlucII Renilla luciferase (donor) and YFP (acceptor) light emissions, respectively. The BRET ratio was determined by calculating the ratio of the light emitted by YFP over the light emitted by the RlucII. For G protein activation, cells were serum starved, pretreated with compounds for 30 min, stimulated with 100 nM AngII for 2 min (Gαq, Gαi3, and Rho sensors) or 5 min (PKC sensor). For the kinetics of GTPase and PI3K/Akt activation, cells were serum starved, pretreated with 21 (50 µM) or Wortmannin (200 nM) for 30 min, stimulated with ligand (100 nM AngII or 100 ng/ml EGF) and BRET signals were monitored at indicated times. For concentration-response curves, cells were serum-starved, pretreated with various concentrations of compounds for 30 min and stimulated with ligand (100 nM AngII, 1 µM BK, 10 µM Isoproterenol (Iso) or 100 ng/ml EGF) in Tyrode’s buffer for 30 min for receptor internalization, 10 min for ARF6, 2 min for Rac and Rho activation and 5 min for Ras activation and PI3K/Akt activation. BRET signals were monitored using a Synergy2 (BioTek) microplate reader and coelenterazine 400a (final concentrations of 5 µM) added 3–5 min prior to BRET measurements. Filter set was 410/80 nm and 515/30 nm for detecting the RlucII Renilla luciferase (donor) and rGFP/GFP10 (acceptor) light emissions, respectively. The BRET ratio was determined by calculating the ratio of the light emitted by rGFP/GFP10 over the light emitted by the RlucII.

A549 cells = assay: Cell viability assay (MTT), A549; assay type: cell-based, human
Protocol: MDA-MB-231 breast cancer cells and A549 lung carcinomas (1500 cells in 150 μl/well) were seeded overnight on a clear 96-well plate. Twenty-four hours later, the cells were treated with 0.1% DMSO, or different concentrations of Rasarfin (as indicated), or 10 µM of 21.4, 21.8 (MDA-MB-231 breast cancer cells) or Doxorubicin for the indicated times at 37 °C. At each time point, 10 μl of 5 mg/ml MTT was added to each well and the plates were incubated for an additional 4 h at 37 °C. The absorbance at 590 nm was measured by plate reader. Experiments were done in triplicate and repeated three times.

Gαq = biological target: T1, Gαq (Homo sapiens, UniProt P50148); assay: Gαq BRET sensor, AT1R-mediated; assay type: cell-based
T1 construct: expressed in transfected cells; host or cells: HEK293SL
T1 sequence (P50148 whole entry): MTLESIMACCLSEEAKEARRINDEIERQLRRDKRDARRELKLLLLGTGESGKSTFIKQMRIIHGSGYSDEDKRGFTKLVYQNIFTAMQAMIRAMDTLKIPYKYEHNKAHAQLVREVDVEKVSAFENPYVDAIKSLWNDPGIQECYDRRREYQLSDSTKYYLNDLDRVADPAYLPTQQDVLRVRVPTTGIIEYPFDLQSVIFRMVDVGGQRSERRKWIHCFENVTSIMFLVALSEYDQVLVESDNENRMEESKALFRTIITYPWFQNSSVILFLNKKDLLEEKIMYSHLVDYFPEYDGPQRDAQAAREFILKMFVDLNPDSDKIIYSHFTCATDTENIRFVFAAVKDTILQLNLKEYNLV
T1 sequence (P62873 whole entry partner): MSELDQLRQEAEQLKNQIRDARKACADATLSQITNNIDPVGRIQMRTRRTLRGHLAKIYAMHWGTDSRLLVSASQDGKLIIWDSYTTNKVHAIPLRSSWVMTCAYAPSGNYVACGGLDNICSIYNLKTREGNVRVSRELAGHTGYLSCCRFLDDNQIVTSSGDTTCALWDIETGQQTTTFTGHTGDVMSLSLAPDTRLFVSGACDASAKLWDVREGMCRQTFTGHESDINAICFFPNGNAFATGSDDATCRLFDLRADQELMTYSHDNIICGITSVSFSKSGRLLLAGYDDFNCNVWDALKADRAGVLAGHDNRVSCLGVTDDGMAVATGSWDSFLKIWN
T1 sequence (P63211 2-71 partner limits assumed): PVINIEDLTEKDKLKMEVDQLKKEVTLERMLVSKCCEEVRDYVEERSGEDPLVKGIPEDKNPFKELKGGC
Protocol: as §1, with “The next day, cells were washed once with Tyrode’s buffer (140 mM NaCl, 2.7 mM KCl, 1 mM CaCl2, 12 mM NaHCO3, 5.6 mM D-glucose, 0.5 mM MgCl2, 0.37 mM NaH2PO4, 25 mM HEPES, pH 7.4) and left in Tyrode’s buffer.” left out, “Coelenterazine H (final concentration of 5 µM) was added 3–5 min prior to BRET measurements. Filter set was 460/80 nm and 535/30 nm for detecting the RlucII Renilla luciferase (donor) and YFP (acceptor) light emissions, respectively.” left out, “For G protein activation, cells were serum starved, pretreated with compounds for 30 min, stimulated with 100 nM AngII for 2 min (Gαq, Gαi3, and Rho sensors) or 5 min (PKC sensor).” left out, “For concentration-response curves, cells were serum-starved, pretreated with various concentrations of compounds for 30 min and stimulated with ligand (100 nM AngII, 1 µM BK, 10 µM Isoproterenol (Iso) or 100 ng/ml EGF) in Tyrode’s buffer for 30 min for receptor internalization, 10 min for ARF6, 2 min for Rac and Rho activation and 5 min for Ras activation and PI3K/Akt activation.” left out, “Filter set was 410/80 nm and 515/30 nm for detecting the RlucII Renilla luciferase (donor) and rGFP/GFP10 (acceptor) light emissions, respectively.” left out

Compound: CC(C)C(=O)N1CCN(c2ccc(NC(=O)c3cc4ccccc4o3)cc2Cl)CC1 [Compound 21]
- β-arrestin2 recruitment to B2R at the PM ([1]; 50 μM): did not preclude
- BK-promoted BRET, Barr2 ([1]; Time 0 min): 0
- BK-promoted BRET, Barr2 ([1]; Time 5 min, listed as Comp 21): 0.1301 and 0.1897 and 0.1572
- BK-promoted BRET, Barr2 ([1]; Time 10 min, listed as Comp 21): 0.1662 and 0.2107 and 0.2145
- BK-promoted BRET, Barr2 ([1]; Time 15 min, listed as Comp 21): 0.1989 and 0.1955 and 0.2222
- BK-promoted BRET, Barr2 ([1]; Time 30 min, listed as Comp 21): 0.2065 and 0.1814 and 0.2273
- BK-promoted BRET, Barr2 ([1]; Time 60 min, listed as Comp 21): 0.2055 and 0.169 and 0.2219
- A549 cell viability (MTT), compared with MDA-MB-231 cells (A549 cells; 10 µM of Rasarfin): more important cell viability effects
- cell viability (MTT signal) (A549 cells; Rasarfin 0.5, 24h): 0.2876 and 0.2844 and 0.2473 and 0.4073 and 0.3734 and 0.2713
- cell viability (MTT signal) (A549 cells; Rasarfin 1, 24h): 0.2899 and 0.2749 and 0.2483 and 0.4128 and 0.3694 and 0.3709
- cell viability (MTT signal) (A549 cells; Rasarfin 2, 24h): 0.2852 and 0.2865 and 0.2518 and 0.3946 and 0.3796 and 0.386
- cell viability (MTT signal) (A549 cells; Rasarfin 5, 24h): 0.2638 and 0.2592 and 0.2504 and 0.3187 and 0.2743 and 0.3116
- cell viability (MTT signal) (A549 cells; Rasarfin 10, 24h): 0.2447 and 0.2619 and 0.2276 and 0.2701 and 0.2102 and 0.246
- cell viability (MTT signal) (A549 cells; Rasarfin 10, 72h): 0.3944 and 0.2496 and 0.4081 and 0.2999 and 0.3697 and 0.3945
- Mean Diff. DMSO vs. compound, Gq (Dunnett's multiple comparisons test) (Gαq): 0.009667
- Gαq engagement by AT1R (BRET sensor) (Gαq; 50 μM): lack of inhibitory effects
- Gq BRET sensor signal (S_Fig.4b), single experiments (Gαq; listed as Comp 21): 0.1945 and 0.171 and 0.2095
